# From US20080261994A1, “CYCLOPROPANE COMPOUNDS AND PHARMACEUTICAL USE THEREOF” (Japan Tobacco Inc., priority 2003, published 2008)
# Read-outs that look alike come from different tables or passages of the source.
# What was measured:
# Type in all cases: biochemical
# [1] = target: T1, MMP-1 (Homo sapiens, UniProt P03956); experiment: MMP-1 inhibitory action (Type I collagen Activity Measurement kit, FITC-labeled collagen type I)
# T1 sequence (P03956 100-469): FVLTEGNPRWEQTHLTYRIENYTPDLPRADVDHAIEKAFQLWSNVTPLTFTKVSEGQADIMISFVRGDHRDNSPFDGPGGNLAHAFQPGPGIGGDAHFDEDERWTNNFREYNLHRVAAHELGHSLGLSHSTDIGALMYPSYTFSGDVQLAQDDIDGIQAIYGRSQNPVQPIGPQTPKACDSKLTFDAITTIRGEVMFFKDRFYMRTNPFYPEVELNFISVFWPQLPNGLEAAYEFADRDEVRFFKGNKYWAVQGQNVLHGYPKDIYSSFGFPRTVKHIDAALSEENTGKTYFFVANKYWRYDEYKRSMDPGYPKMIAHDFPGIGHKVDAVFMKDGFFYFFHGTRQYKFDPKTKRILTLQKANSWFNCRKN
# [2] = target: T2, Recombinant Human MMP-13 (Homo sapiens, UniProt P45452); experiment: MMP-13 inhibitory activity (MMP-13 specific fluorescent substrate with quencher)
# T2 construct: purchased R&D systems 511-MM
# In short: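 IC50 (μM) derived from % inhibition, normalised to wells without enzyme and without inhibitor, fluorescence read at 325/405 nm. Enzyme and compound preceded addition of the quenched 7-MCA…DPA substrate; Tris-HCl buffer, 25 °C for 1 h, acetic-acid stop.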
# [3] = target: T3, aggrecanase-1 (Homo sapiens, UniProt O75173); experiment: Aggrecanase-1 inhibitory action (Particle Assay, GAG release from aggrecan-containing polyacrylamide particles)
# T3 sequence (O75173 213-837): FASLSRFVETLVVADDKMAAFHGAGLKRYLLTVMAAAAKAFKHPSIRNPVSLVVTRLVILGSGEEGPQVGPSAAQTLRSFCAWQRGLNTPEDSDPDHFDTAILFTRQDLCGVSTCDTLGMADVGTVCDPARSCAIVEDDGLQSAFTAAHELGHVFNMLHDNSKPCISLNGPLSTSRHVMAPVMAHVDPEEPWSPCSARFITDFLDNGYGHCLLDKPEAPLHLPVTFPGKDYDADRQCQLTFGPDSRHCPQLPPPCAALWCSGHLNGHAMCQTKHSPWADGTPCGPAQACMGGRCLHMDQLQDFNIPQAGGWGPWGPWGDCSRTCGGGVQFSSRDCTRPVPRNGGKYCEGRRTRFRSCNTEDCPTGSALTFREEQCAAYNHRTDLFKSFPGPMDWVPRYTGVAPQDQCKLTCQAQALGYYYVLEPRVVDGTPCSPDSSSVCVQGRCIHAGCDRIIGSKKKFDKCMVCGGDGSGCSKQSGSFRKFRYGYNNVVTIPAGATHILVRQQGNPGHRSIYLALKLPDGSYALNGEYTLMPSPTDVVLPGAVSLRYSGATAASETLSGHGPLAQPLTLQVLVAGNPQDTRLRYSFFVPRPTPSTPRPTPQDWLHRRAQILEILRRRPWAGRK
# In short: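 Readout was dimethylmethylene blue absorbance (595 nm) of glycosaminoglycan liberated into supernatant, calibrated with whale chondroitin sulfate. Substrate was aggrecan in polyacrylamide particles, digested 15 h at 37° C in Tris-HCl; TC50 (μM) derived from inhibition relative to no-enzyme and no-inhibitor controls.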
# [4] = MMP-1 inhibitory action, FITC-labeled collagen type I, 37° C. for 3 hr, read-out: IC50 MMP1 (Experimental Example 2)
# [5] = Recombinant Human MMP-13, fluorescent substrate, 25° C. for 1 h, read-out: IC50 MMP13 (Experimental Example 3)
# [6] = aggrecanase-1 inhibitory action, read-out: IC50 AG1 (Experimental Example 1)
# [7] = Experimental Example 2, read-out: IC50 MMP1
# [8] = Experimental Example 3, read-out: IC50 MMP13
# [9] = Experimental Example 1, read-out: IC50 AG1
"IC50 [1, 4] [nM]","IC50 [2, 5] [nM]","IC50 [3, 6] [nM]","IC50 [1, 7] [nM]","IC50 [2, 8] [nM]","IC50 [3, 9] [nM]",Structure (SMILES)
≥ 1000,< 1000,< 100,,,,O=C(O)C1(NS(=O)(=O)c2ccc(-c3ccc(Cl)cc3)s2)CC1(CCO)c1ccccc1 (stereo not drawn) [Example 2-263]
≥ 10000,< 1000,< 1000,,,,O=C(O)[C@]1(NS(=O)(=O)c2ccc(C3=NOC(O)(C(F)(F)F)C3)s2)C[C@@H]1c1ccccc1 (stereo partly drawn) [Example 2-35]
≥ 10000,< 1000,< 1000,,,,O=C(O)C1(NS(=O)(=O)c2ccc(-c3ccc(Cl)cc3)s2)CC1c1ccc(CO)cc1 (stereo not drawn) [Example 2-226]
≥ 10000,≥ 1000,≥ 1000,,,,CC(=O)N1CC=C(c2ccc(S(=O)(=O)N[C@@]3(C(=O)O)C[C@@H]3c3ccccc3)s2)CC1 [Example 2-177]
,,,< 1000,< 100,< 100,CNC(=O)Cc1ccc([C@@H]2C[C@]2(NS(=O)(=O)c2ccc(-c3cc(C(F)(F)F)on3)s2)C(=O)O)cc1 [Example 2-293]
,,,< 1000,< 100,< 1000,C[C@]1(c2ccccc2)C[C@@]1(NS(=O)(=O)c1cn2cc(-c3ccccc3)nc2s1)C(=O)O [Example 2-518]
,,,≥ 1000,< 100,< 100,CC1[C@H](c2ccccc2)[C@]1(NS(=O)(=O)c1ccc(-c2ccc3nsnc3c2)s1)C(=O)O (stereo partly drawn) [Example 2-497]
≥ 1000,< 1000,< 1000,,,,O=C(O)C1(NS(=O)(=O)c2ccc(-c3ccc(Cl)cc3)s2)CC1c1cccc(OCCO)c1 (stereo not drawn) [Example 1-86]
,,,< 1000,< 1000,≥ 10000,C#Cc1ccc(S(=O)(=O)N[C@@]2(C(=O)O)C(C)[C@@H]2c2ccccc2)s1 (stereo partly drawn) [Example 2-424]
,,,≥ 1000,< 100,≥ 1000,CC1[C@H](c2ccccc2)[C@]1(NS(=O)(=O)c1ccc(-c2nc3ccccc3s2)s1)C(=O)O (stereo partly drawn) [Example 2-591]
,,,≥ 10000,≥ 1000,< 100,O=C(O)C1(NS(=O)(=O)c2ccc(-c3ccc(Cl)cc3)s2)CC1(CN1CCOCC1)c1ccccc1 (stereo not drawn) [Example 2-341]
,,,≥ 1000,≥ 1000,< 1000,NCCCC1(c2ccccc2)CC1(NS(=O)(=O)c1ccc(-c2ccc(Cl)cc2)s1)C(=O)O (stereo not drawn) [Example 2-285]
≥ 1000,< 1000,< 100,,,,O=C(O)c1cccc(C2CC2(NS(=O)(=O)c2ccc(-c3ccc(Cl)cc3)s2)C(=O)O)c1 (stereo not drawn) [Example 1-113]
≥ 10000,≥ 10000,≥ 10000,,,,O=C(O)C1(NS(=O)(=O)c2ccc(S(=O)(=O)c3ccccc3)s2)CC1c1ccccc1 (stereo not drawn) [Example 2-81]
,,,< 1000,< 1000,< 100,C[C@]1(c2ccccc2)C[C@@]1(NS(=O)(=O)c1ccc(-n2cc(S(C)(=O)=O)cn2)s1)C(=O)O [Example 2-602]
≥ 10000,< 100,< 100,,,,CC(C)(O)COc1cccc(C2CC2(NS(=O)(=O)c2ccc(-c3ccc(Cl)cc3)s2)C(=O)O)c1 (stereo not drawn) [Example 2-42]
,,,< 1000,< 100,< 100,O=C(CCc1ccc([C@H]2C[C@@]2(NS(=O)(=O)c2ccc(-c3cc(C(F)(F)F)on3)s2)C(=O)O)cc1)N1CCOCC1 [Example 2-279]
≥ 10000,≥ 1000,≥ 10000,,,,O=C(O)C1(NS(=O)(=O)N2CCC(Oc3ccc(F)cc3)CC2)CC1c1ccccc1 (stereo not drawn) [Example 2-145]
≥ 10000,≥ 1000,≥ 10000,,,,O=C(O)[C@]1(NS(=O)(=O)/C=C/c2cccc(Cl)c2)C[C@@H]1c1ccccc1 [Example 2-153]
,,,≥ 10000,≥ 10000,≥ 1000,C[C@]1(c2ccccc2)C[C@@]1(NS(=O)(=O)c1ccc(-c2cccc(C(=O)O)c2)s1)C(=O)O [Example 2-479]

"IC50 [1, 4] [nM]","IC50 [2, 5] [nM]","IC50 [3, 6] [nM]","IC50 [1, 7] [nM]","IC50 [2, 8] [nM]","IC50 [3, 9] [nM]",Structure (SMILES)
,,,≥ 1000,< 1000,< 1000,CN(C)C(=O)OCC1(c2ccccc2)CC1(NS(=O)(=O)c1ccc(-c2cc(C(F)(F)F)on2)s1)C(=O)O (stereo not drawn) [Example 2-320]
,,,< 1000,< 100,< 1000,CC(=O)Nc1cccc(-c2ccc(S(=O)(=O)N[C@@]3(C(=O)O)C[C@]3(C)c3ccccc3)s2)c1 [Example 2-480]
,,,≥ 1000,≥ 1000,< 1000,C[C@]1(c2ccccc2)C[C@@]1(NS(=O)(=O)c1ccc(-c2ccc(O)c(F)c2)s1)C(=O)O [Example 2-589]
,,,≥ 1000,< 1000,< 1000,CN(CCO)C(=O)OCC1(c2ccccc2)CC1(NS(=O)(=O)c1ccc(-c2cc(C(F)(F)F)on2)s1)C(=O)O (stereo not drawn) [Example 2-332]
,,,< 1000,< 1000,< 100,C[C@]1(c2cccc(Cl)c2)C[C@@]1(NS(=O)(=O)c1ccc(-c2cc(C(F)(F)F)on2)s1)C(=O)O [Example 2-619]
,,,≥ 1000,< 100,< 1000,CCOC(=O)c1cnn(-c2ccc(S(=O)(=O)N[C@@]3(C(=O)O)C(C)[C@@H]3c3ccccc3)s2)c1 (stereo partly drawn) [Example 2-521]
≥ 10000,< 1000,≥ 10000,,,,O=C(O)[C@]1(NS(=O)(=O)c2ccc(-c3cccc(C(F)(F)F)c3)s2)C[C@@H]1c1ccccc1 [Example 2-134]
≥ 1000,< 1000,< 100,,,,O=C(O)[C@]1(NS(=O)(=O)c2ccc3c(c2)Cc2cc(Cl)ccc2-3)C[C@@H]1c1ccccc1 [Example 2-142]
≥ 10000,< 100,< 100,,,,CN(Cc1cccnc1)c1cccc(C2CC2(NS(=O)(=O)c2ccc(-c3ccc(Cl)cc3)s2)C(=O)O)c1 (stereo not drawn) [Example 2-37]
< 1000,< 100,< 100,,,,O=C(O)[C@]1(NS(=O)(=O)c2ccc(-c3cc(CF)sn3)s2)C[C@@H]1c1ccccc1 [Example 2-120]
,,,< 1000,< 100,< 100,CC1[C@H](c2ccccc2)[C@]1(NS(=O)(=O)c1ccc(-c2ccc(Cl)c(F)c2)s1)C(=O)O (stereo partly drawn) [Example 2-435]
,,,≥ 10000,< 100,≥ 1000,Cc1cnn(-c2ccc(S(=O)(=O)N[C@@]3(C(=O)O)C[C@@H]3c3ccccc3)cn2)c1 [Example 2-481]
,,,≥ 1000,< 100,< 100,NC(=O)OCCC1(c2ccccc2)CC1(NS(=O)(=O)c1ccc(-c2ccc(Cl)cc2)s1)C(=O)O (stereo not drawn) [Example 2-295]
,,,≥ 1000,≥ 1000,< 100,O=C(O)CSCC1(c2ccccc2)CC1(NS(=O)(=O)c1ccc(-c2cc(C(F)(F)F)on2)s1)C(=O)O (stereo not drawn) [Example 2-410]
≥ 10000,≥ 1000,≥ 10000,,,,O=C(O)[C@]1(NS(=O)(=O)/C=C/c2ccc(C(F)(F)F)cc2)C[C@@H]1c1ccccc1 [Example 2-161]
< 1000,< 100,< 100,,,,O=C(O)[C@]1(NS(=O)(=O)c2ccc(-c3cc(C(F)F)sn3)s2)C[C@@H]1c1ccccc1 [Example 2-119]
≥ 10000,< 1000,< 100,,,,O=C(c1ccccc1C1CC1(NS(=O)(=O)c1ccc(-c2ccc(Cl)cc2)s1)C(=O)O)N1CCOCC1 (stereo not drawn) [Example 2-76]
≥ 10000,≥ 1000,≥ 1000,,,,CC(C)(C)NCCOc1ccccc1C1CC1(NS(=O)(=O)c1ccc(-c2ccc(Cl)cc2)s1)C(=O)O (stereo not drawn) [Example 2-53]
,,,≥ 10000,< 1000,< 1000,CS(=O)(=O)CC1(c2ccccc2)CC1(NS(=O)(=O)c1ccc(-c2ccc(Cl)cc2)s1)C(=O)O (stereo not drawn) [Example 2-440]
,,,≥ 10000,≥ 1000,≥ 1000,O=C(O)[C@]1(NS(=O)(=O)c2ccc(-n3cc(Br)cn3)s2)C[C@@H]1c1ccccc1 [Example 2-605]
